According to patent US7968097B2, “Identification of Hla-A2-presented T-cell epitopes derived from the oncofoetal antigen-immature laminin receptor protein and uses thereof” (Immatics Biotechnologies GmbH, priority 2005, dated 2011):

Tests used:
[1] = tested on: peptide-pulsed 51Cr-labelled T2 cells; assay: Cold target inhibition assay; format: cell-based, human
Description: CTL derived from healthy HLA-A*0201^+ individuals were generated using a protocol described elsewhere (Zeis M, Siegel S, Schmitz M et al. Induction of cytotoxic T lymphocytes against hematologic neoplasms by survivin RNA-transfected dendritic cells. J Immunol. 2003; 170, 5391-5397.). For the induction of autologous OFA/ILR, peptide-specific CTL obtained from patients with AML and CLL, CD8^+ T cells were separated from PBMC using immunomagnetic beads (MACS®, Miltenyi, Bergisch-Gladbach, Germany), cultured with autologous OFA/iLR peptide-pulsed fully matured DC and restimulated with autologous peptide-pulsed PBMC in the presence of IL-2 (1 ng/ml, CellConcepts, Weisskirch, Germany). After at least four weekly restimulations, CTL reactivity was determined in a conventional 4 h ^51Chromium release assay. Cold target inhibition assays and antibody blocking experiments were performed as previously described (Zeis M, Siegel S, Schmitz M et al. Induction of cytotoxic T lymphocytes against hematologic neoplasms by survivin RNA-transfected dendritic cells. J Immunol. 2003; 170, 5391-5397.).
A cold target inhibition assay was performed. To examine whether ILR1-specific T cells lyse ILR1 peptide-pulsed T2 cells specifically and in the context of HLA-A*02, cold target inhibition assays were performed as follows: ^51Cr-labelled T2 cells were loaded with peptide in a concentration of 10 microgram peptide/10^6 T2 cells/ml. A total of 2×10^5 unlabelled, T2 cells, which had equally been loaded with the same or a control peptide, were then added in a volume of 50 microliter AIMV to 10^4 peptide-pulsed, ^51Cr-labelled T2 cells. Effector T cells specific for ILR1 were added and a ^51Cr-release assay was performed as described above.
A cold target inhibition assay was performed as described under “T2+ILR1” above.

peptide-pulsed T2 cells = assay: Lysis of peptide-pulsed T2 target cells by peptide-specific CTL (peptide titration); format: cell-based, human

Sequence	competition of cold targets loaded with the peptide for lysis ([1]; hot target ILR1-peptide-pulsed T2, effectors ILR1-specific CTL, 10 microgram peptide/10^6 T2 cells/ml)	competition of cold targets loaded with the peptide for lysis ([1]; hot target ILR2-peptide-pulsed T2, effectors ILR2-specific CTL)	recognition/lysis of T2 cells pulsed with the peptide (peptide-pulsed T2 cells)
LYLKNYRIA (listed as Homo sapiens) [Survivin, reference compound]	neither peptides irrelevant for ILR1-specific CTL (Survivin and ILR2), nor unloaded T2 cells, which display empty HLA-A*02 molecules on their cell surfaces, compete for lysis	neither peptides irrelevant for ILR2-specific CTL (Survivin and ILR1), nor unloaded T2 cells, which display empty HLA-A*02 molecules on their cell surfaces, compete for lysis	
ILKEPVHGV [HIV peptide, reference compound]			not recognized
